Molecular target: Nicotinamide phosphoribosyltransferase (Homo sapiens, UniProt P43490)
Experiment: NAMPT Enzyme Activating Effect (In Vitro Cell-Free Enzyme Assay

Sequence of Nicotinamide phosphoribosyltransferase (P43490 whole entry): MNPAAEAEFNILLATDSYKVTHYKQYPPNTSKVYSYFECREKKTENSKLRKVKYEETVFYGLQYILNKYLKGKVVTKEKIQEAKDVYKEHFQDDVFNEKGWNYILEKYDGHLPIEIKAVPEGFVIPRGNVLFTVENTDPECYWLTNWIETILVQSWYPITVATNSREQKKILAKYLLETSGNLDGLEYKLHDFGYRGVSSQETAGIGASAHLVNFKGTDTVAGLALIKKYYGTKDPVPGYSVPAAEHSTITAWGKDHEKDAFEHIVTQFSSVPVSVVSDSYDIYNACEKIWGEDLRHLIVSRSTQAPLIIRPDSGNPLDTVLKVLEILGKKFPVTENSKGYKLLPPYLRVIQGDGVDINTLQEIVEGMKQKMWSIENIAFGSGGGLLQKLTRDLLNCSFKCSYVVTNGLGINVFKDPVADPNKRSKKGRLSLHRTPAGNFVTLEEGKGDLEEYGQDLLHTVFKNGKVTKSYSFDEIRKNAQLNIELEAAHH

EC50: 230 nM
Structure (SMILES): O=C(NCc1ccncc1)Nc1ccn2nc(-c3ccccc3)nc2c1 [US11918568, Example 15]

From BindingDB's records for patent US11918568 (Sanford Burnham Prebys Medical Discovery Institute, 2024)
